Measurements published in ChEMBL document CHEMBL1141364, “Design and synthesis of indane-ureido-thioisobutyric acids: A novel class of PPARalpha agonists” (Bioorg Med Chem Lett, 2007).

Legend:
[1] = target: T1, Peroxisome proliferator-activated receptor alpha (Rattus norvegicus, UniProt P37230); assay: Agonist activity at rat PPARalpha in rat H4IIE cells assessed as gene induction; format: functional, cell-based
T1 sequence (P37230 whole entry): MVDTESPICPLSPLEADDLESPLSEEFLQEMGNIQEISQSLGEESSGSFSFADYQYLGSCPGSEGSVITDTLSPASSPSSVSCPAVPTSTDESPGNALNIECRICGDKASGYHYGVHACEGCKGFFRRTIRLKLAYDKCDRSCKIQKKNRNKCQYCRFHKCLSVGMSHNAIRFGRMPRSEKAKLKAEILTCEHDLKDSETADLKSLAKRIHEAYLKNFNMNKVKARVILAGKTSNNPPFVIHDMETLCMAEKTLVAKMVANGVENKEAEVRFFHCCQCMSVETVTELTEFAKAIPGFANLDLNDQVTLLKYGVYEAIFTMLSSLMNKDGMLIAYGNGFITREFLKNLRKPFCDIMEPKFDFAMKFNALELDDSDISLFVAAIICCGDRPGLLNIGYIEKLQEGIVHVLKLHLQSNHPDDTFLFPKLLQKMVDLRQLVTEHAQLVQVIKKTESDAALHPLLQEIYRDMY

[2] = Metabolic stability in human liver microsomes at 5 uM; format: ADME, Microsome
[3] = Cmax in Sprague-Dawley rat at 3 mg/kg, iv or 30 mg/kg, po; format: ADME, organism-based; conditions: in vivo
[4] = AUC in Sprague-Dawley rat at 3 mg/kg, iv or 30 mg/kg, po; format: ADME, organism-based; conditions: plasma
[5] = Half life at terminal phase in Sprague-Dawley rat at 30 mg/kg, po; format: ADME, organism-based; design: dose 30 mg/kg, route oral; conditions: in vivo, read-out: beta t1/2 (converted)
[6] = Total clearance in Sprague-Dawley rat at 3 mg/kg, iv or 30 mg/kg, po; format: ADME, organism-based; conditions: in vivo
[7] = Oral bioavailability in Sprague-Dawley rat at 30 mg/kg; format: ADME, organism-based; conditions: in vivo
[8] = target: T2, Peroxisome proliferator-activated receptor alpha (Homo sapiens, UniProt Q07869); assay: Agonist activity at PPARalpha expressed in HEK293 cells by GAL4 transactivation assay; format: functional, cell-based
T2 sequence (Q07869 whole entry): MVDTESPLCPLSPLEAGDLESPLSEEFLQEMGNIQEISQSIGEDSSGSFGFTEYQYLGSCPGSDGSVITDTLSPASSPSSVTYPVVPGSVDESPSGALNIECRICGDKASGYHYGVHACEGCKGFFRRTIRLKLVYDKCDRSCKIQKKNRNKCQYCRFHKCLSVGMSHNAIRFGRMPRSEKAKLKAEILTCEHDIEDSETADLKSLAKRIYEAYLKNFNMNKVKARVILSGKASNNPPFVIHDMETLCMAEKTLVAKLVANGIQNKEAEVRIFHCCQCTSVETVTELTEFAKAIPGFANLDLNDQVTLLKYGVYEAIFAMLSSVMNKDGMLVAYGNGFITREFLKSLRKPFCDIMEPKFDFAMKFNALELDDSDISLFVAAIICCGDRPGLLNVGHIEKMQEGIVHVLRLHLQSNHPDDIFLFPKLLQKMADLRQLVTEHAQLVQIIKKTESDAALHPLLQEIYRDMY

[9] = target: T3, Peroxisome proliferator-activated receptor delta (Homo sapiens, UniProt Q03181); assay: Agonist activity at PPARdelta expressed in HEK293 cells by GAL4 transactivation assay; format: functional, cell-based
T3 sequence (Q03181 whole entry): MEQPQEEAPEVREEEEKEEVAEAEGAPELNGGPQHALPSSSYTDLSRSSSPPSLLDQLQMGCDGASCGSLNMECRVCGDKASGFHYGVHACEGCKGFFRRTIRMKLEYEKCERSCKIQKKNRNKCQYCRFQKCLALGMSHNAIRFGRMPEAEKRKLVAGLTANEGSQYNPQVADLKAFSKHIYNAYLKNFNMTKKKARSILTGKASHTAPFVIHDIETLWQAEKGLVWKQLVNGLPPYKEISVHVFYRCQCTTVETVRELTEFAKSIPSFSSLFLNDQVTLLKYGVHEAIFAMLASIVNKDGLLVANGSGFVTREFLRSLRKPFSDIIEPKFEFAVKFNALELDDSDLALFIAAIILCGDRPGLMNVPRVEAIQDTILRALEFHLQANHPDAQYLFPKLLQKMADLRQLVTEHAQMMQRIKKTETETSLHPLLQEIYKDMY

[10] = target: T4, Peroxisome proliferator-activated receptor gamma (Homo sapiens) (UniProt P37231); assay: Agonist activity at PPARgamma expressed in HEK293 cells assessed as aP2 gene induction relative to BRL-49653; format: functional, cell-based
T4 sequence (whole entry): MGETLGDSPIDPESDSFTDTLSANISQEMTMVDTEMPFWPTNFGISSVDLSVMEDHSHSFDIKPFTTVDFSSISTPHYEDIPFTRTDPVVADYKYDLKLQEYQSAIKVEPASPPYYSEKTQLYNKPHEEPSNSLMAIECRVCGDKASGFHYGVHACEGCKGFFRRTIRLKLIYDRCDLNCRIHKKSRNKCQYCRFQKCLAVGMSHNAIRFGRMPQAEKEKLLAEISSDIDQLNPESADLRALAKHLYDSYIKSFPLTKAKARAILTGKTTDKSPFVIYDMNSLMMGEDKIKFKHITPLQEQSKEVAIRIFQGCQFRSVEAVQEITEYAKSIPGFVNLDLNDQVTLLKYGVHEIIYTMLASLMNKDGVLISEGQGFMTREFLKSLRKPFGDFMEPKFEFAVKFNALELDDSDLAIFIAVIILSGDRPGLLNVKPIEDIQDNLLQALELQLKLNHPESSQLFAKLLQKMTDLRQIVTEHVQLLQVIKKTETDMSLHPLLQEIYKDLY

[11] = target: T5, Peroxisome proliferator-activated receptor gamma (Homo sapiens, UniProt P37231)
T5 sequence (P37231 whole entry): T4 sequence (whole entry)
Description: Agonist activity at PPARgamma expressed in HEK293 cells by GAL4 transactivation assay

Mus musculus [12] = assay: Reduction in insulin levels in db/db mouse plasma at 0.1 mg/kg, po after 11 days; design: scale not given: the % may be the effect or the level left
Mus musculus [13] = assay: Reduction in glucose levels in db/db mouse plasma at 0.1 mg/kg, po after 11 days; design: scale not given: the % may be the effect or the level left
Mus musculus [14] = assay: Reduction in triglyceride levels in db/db mouse plasma at 0.1 mg/kg, po after 11 days; design: scale not given: the % may be the effect or the level left
Mus musculus [15] = assay: Reduction in body weight of db/db mouse at 1 mg/kg, po after 11 days; design: scale not given: the % may be the effect or the level left
Mus musculus [16] = assay: Reduction in glucose levels in db/db mouse plasma at 1 mg/kg, po after 11 days; design: scale not given: the % may be the effect or the level left
Mus musculus [17] = assay: Reduction in insulin levels in db/db mouse plasma at 1 mg/kg, po after 11 days; design: scale not given: the % may be the effect or the level left
Mus musculus [18] = assay: Reduction in triglyceride levels in db/db mouse plasma at 1 mg/kg, po after 11 days; design: scale not given: the % may be the effect or the level left

| Structure (SMILES) | EC50 [1] [nM] | half-life at 5 µM [2] [h] | Cmax [3] [ng/mL] | AUC [4] [µg·h/mL] | half-life [5] [h] | clearance [6] [mL/min/kg] | bioavailability [7] [%] | other results |
| --- | --- | --- | --- | --- | --- | --- | --- | --- |
| CCN(C(=O)Nc1ccc(N(C)C)cc1)C1Cc2ccc(SC(C)(C)C(=O)O)cc2C1 (centres undefined) | 117 | 1.33 | 72300 | 273 | 4.46 | 0.11 | 58 |  |
| CCN(C(=O)Nc1ccc(OC(F)(F)F)cc1)[C@@H]1Cc2ccc(SC(C)(C)C(=O)O)cc2C1 | 2 |  |  |  |  |  |  | EC50 [8]: 170 nM; EC50 [9]: 2100 nM; Activity [10]: 3.8%; EC50 [11]: > 10000 nM; Activity (Mus musculus [12]): 49%; Activity (Mus musculus [13]): 16%; Activity (Mus musculus [14]): 43% |
| CCCCCN(C(=O)Nc1ccc(SC(F)(F)F)cc1)C1Cc2ccc(SC(C)(C)C(=O)O)cc2C1 (centres undefined) | 46 | 1.27 | 8020 | 54.7 | 4.05 | 0.55 | 59 |  |
| CCN(C(=O)Nc1ccc(SC(F)(F)F)cc1)C1Cc2ccc(SC(C)(C)C(=O)O)cc2C1 (centres undefined) | 23 | 1.67 | 5670 | 101 | 3.84 | 0.3 | 100 |  |
| CCCCCN(C(=O)Nc1ccc(N(C)C)cc1)C1Cc2ccc(SC(C)(C)C(=O)O)cc2C1 (centres undefined) | 141 | 1.57 | 20800 | 63.6 | 2.6 | 0.47 | 62 |  |
| CCCCCN(C(=O)Nc1ccc(OC(F)(F)F)cc1)C1Cc2ccc(SC(C)(C)C(=O)O)cc2C1 (centres undefined) | 105 | 1.67 | 16600 | 121 | 7.19 | 0.25 | 24 |  |
| CCN(C(=O)Nc1ccc(OC(F)(F)F)cc1)C1Cc2ccc(SC(C)(C)C(=O)O)cc2C1 (centres undefined) | 33 | 1.67 | 39300 | 290 | 4 | 0.1 | 59 | Activity (Mus musculus [15]): 59%; Activity (Mus musculus [16]): 60%; Activity (Mus musculus [17]): 53%; Activity (Mus musculus [18]): 56% |
| CCCCCCCN(CCc1ccc(SC(C)(C)C(=O)O)cc1)C(=O)Nc1ccc(F)cc1F [GSK-9578] | 166 |  |  |  |  |  |  | EC50 [9]: 150 nM; Activity [10]: 0.46% |
| CCCCCCCN(C(=O)Nc1ccccc1OC(F)(F)F)C1Cc2ccc(SC(C)(C)C(=O)O)cc2C1 (centres undefined) | 4990 |  |  |  |  |  |  |  |
| CCCCCCCN(C(=O)Nc1cccc(OC)c1)C1Cc2ccc(SC(C)(C)C(=O)O)cc2C1 (centres undefined) | 1110 |  |  |  |  |  |  |  |
| CC(C)CN(C(=O)Nc1ccc(OC(F)(F)F)cc1)C1Cc2ccc(SC(C)(C)C(=O)O)cc2C1 (centres undefined) | 2340 |  |  |  |  |  |  |  |
| CCCCCCCN(C(=O)Nc1ccc(F)cc1F)C1Cc2ccc(SC(C)(C)C(=O)O)cc2C1 (centres undefined) | > 10000 |  |  |  |  |  |  |  |
| CC(C)N(C(=O)Nc1ccc(OC(F)(F)F)cc1)C1Cc2ccc(SC(C)(C)C(=O)O)cc2C1 (centres undefined) | > 5000 |  |  |  |  |  |  |  |
| CCN(C(=O)Nc1ccc(C(C)C)cc1)C1Cc2ccc(SC(C)(C)C(=O)O)cc2C1 (centres undefined) | 32 | 0.2 | 32400 | 37.1 | 2.92 | 0.81 | 34 |  |
| CCN(C(=O)Nc1ccc(OC(F)(F)F)c(Cl)c1)C1Cc2ccc(SC(C)(C)C(=O)O)cc2C1 (centres undefined) | > 3000 |  |  |  |  |  |  |  |
| CC(C)(Sc1ccc2c(c1)C[C@@H](NC(=O)Nc1ccc(OC(F)(F)F)cc1)C2)C(=O)O | 1110 |  |  |  |  |  |  |  |
| CCCCCCCN(C(=O)Nc1ccc(OC)cc1)C1Cc2ccc(SC(C)(C)C(=O)O)cc2C1 (centres undefined) | 910 |  |  |  |  |  |  |  |
| CCCCCCCN(C(=O)Nc1ccc(OC(F)(F)F)cc1)C1Cc2ccc(SC(C)(C)C(=O)O)cc2C1 (centres undefined) | 294 |  |  |  |  |  |  |  |
| CC(C)(Sc1ccc2c(c1)C[C@H](NC(=O)Nc1ccc(OC(F)(F)F)cc1)C2)C(=O)O | 146 |  |  |  |  |  |  |  |
